In brackets after ≈: the same amount, converted by molar mass.
Key:
colon and kidney cells = conditions: Comet assay, Müller et al. 1996; cited from earlier work
Solubility in water = format: physicochemical; conditions: for solubility of test solutions for chondrocyte culture: rhein needed five minutes sonication; for solubility in water (in words): water / aqueous solution
[1] = tested on: IL-1 β cytokine production by human normal and osteoarthritic (OA) chondrocytes; assay: In vitro IL-1β inhibition in LPS-stimulated human chondrocytes (ELISA); format: cell-based
Text: The activity of the compound of example 1, and of rhein in inhibiting the lipopolysaccharide (LPS) stimulated production of IL-1 β cytokine by human normal and osteoarthritic (OA) chondrocytes was studied.
Human cartilage was obtained during orthopaedic surgery for total hip prosthesis due to traumatic fracture in normal subjects or OA patients. Patients with OA were selected on the basis of the following criteria (1) bi-lateral OA, (2) diagnoses of moderate OA (grade I-III, Kellgren-Laurence), supported by radiology and pathology.
A suspension of isolated chondrocytes was prepared from cartilage specimens obtained from four OA patient and nine normal subjects. Specimens were obtained and maintained under aseptic conditions. The cartilage was cut into small fragments and incubated with 1 mg/ml clostridial collagenase in carbonate/bicarbonate buffer for 48 hours at 37° C. Once separated from the cartilage matrix, chondrocytes were centrifuged at 1500 RPM for five minutes. The separated chondrocytes, suspended in culture medium (DMEM supplemented with 10% SCF) were used for the experiment. Cell viability was evaluated by Trypan blue exclusion.
In vitro stimulation of chondrocytes with bacterial endotoxin (LPS) for the production of IL-1 β was carried out as follows: […]

| solubility of test solutions for chondrocyte culture (Solubility in water) | solubility in water (in words) (Solubility in water) | Compound | also measured |
| --- | --- | --- | --- |
|  |  | O=C1c2cccc(O)c2C(=O)c2c(O)cc(CO)cc21 [Aloe-emodin] | clastogenic effect (colon and kidney cells): clastogenic effect in colon and kidney cells |
| good solubility |  | O=C(O)c1cc(O)c2c(c1)C(=O)c1ccc(S(=O)(=O)O)c(O)c1C2=O [Example 1, 6-sulfo-4,5-dihydroxy-9,10-dioxo-2-anthracene carboxylic acid] | solubility (Solubility in water; water): 1200 µg/mL (≈ 3.29 mM); IL-1β inhibition activity compared with rhein (FIG. 3) ([1]; LPS-stimulated normal and OA chondrocytes, 48 hours, ELISA): significantly increased IL-1β inhibition activity compared with rhein; inhibition of IL-1β production (FIG. 4) ([1]; LPS-stimulated normal chondrocytes, dose-dependent): significant inhibition of IL-1β production |
|  | practically insoluble in water | CC(=O)Oc1cccc2c1C(=O)c1c(OC(C)=O)cc(C(=O)O)cc1C2=O [diacerein] |  |
| solubility problems | practically insoluble in water | O=C(O)c1cc(O)c2c(c1)C(=O)c1cccc(O)c1C2=O [rhein, 4,5-dihydroxy-9,10-dioxo-2-anthracene carboxylic acid] |  |

Reference: patent publication US8754128B2, “Dioxoanthracene sulphonate derivatives” (Laboratoire Medidom SA, priority 2007, dated 2014)
